These results are taken from ChEMBL document CHEMBL5726472, “Oxazolidin-2-one-pyrimidine derivatives and the use thereof as phosphatidylinositol-3-kinase inhibitors” (2019).

Bounds are passed on as bounds.

Assay [1] can be described thus: (§1) AlphaScreen (Amplified Luminescent Proximity Homogeneous Assay, ALPHA, Perkin Elmer) is a non-radioactive bead-based proximity assay technology to study biomolecular interactions in a homogenous microtiter plate format. The brand name SureFire denotes AlphaScreen assays that are adapted to quantify the phosphorylation of endogenous cellular proteins in cell lysates, by using matched antibody pairs, which consist of an anti-phospho-kinase and an anti-kinase antibody. The assay allows characterization of kinase signaling in cells as well as measurement of kinase inhibitor effects. The AlphaScreen technology provides several advantages over standard assay techniques such as ELISA, as it avoids time-consuming washing procedures and reduces plate handling. Furthermore, it is miniaturizable at least to a 384-well format and provides sensitivity down to the femtomolar range, dependent on the affinity of the antibodies included in the individual AlphaScreen SureFire assay kit. High sensitivity is reached by an intrinsic amplification mechanism, which involves production of singlet oxygen molecules. SureFire assay kits are commercially available for specific targets and include pairs of validated antibodies (PerkinElmer). This report describes common procedures applied for AlphaScreen SureFire assays and respective semi-automated steps for routine kinase inhibitor profiling in cell-based assays.The Rat-1 cell lines stably overexpressing activated PI3K class I isoforms Rat-1 pBABEpuro Myr-HA-hp110 delta (Rat-1_PI3Kdelta) and Rat-1 pBABEpuro Myr-HA-hp110alpha (Rat-1_PI3Kalpha) and Rat-1 pBABEpuro Myr-HA-hp110 beta (Rat-1_PI3beta) were prepared as described (Maira S M, Stauffer F, Brueggen J, Furet P, Schnell C, Fritsch C, Brachmann S, Chène P, de Pover A, Schoemaker K, Fabbro D, Gabriel D, Simonen M, Murphy L, Finan P, Sellers W, Garcia-Echeverria C (2008), Mol Cancer Ther. 7:1851-63 and Maira S M, Pecchi S, Brueggen J, Huh K, Schnell C, Fritsch C, Nagel T, Wiesmann M, Brachmann S, Dorsch M, Chène P, Schoemaker K, De Pover A, Menezes D, Fabbro D, Sellers W, Garcia-Echeverria C, Voliva CF (2011), Mol. Cancer Ther., accepted). All cell lines were cultivated in complete growth medium (DMEM high glucose, 10% (v/v) fetal bovine serum, 1% (v/v) MEM NEAA, 10 mM HEPES, 2 mM L-glutamine, puromycin (10 μg/mL for Rat-1_PI3Kdelta and Rat-1_PI3Kalpha, 4 ug/mL for Rat-1_PI3beta), 1% (v/v) Pen/Strep) to 90% confluency at 37° C./5% CO2/90% humidity in a humidified CO2 incubator and were split twice a week.The following materials were used for p-AKT(5473) detection in Rat-1 cell lysates: Dulbecco's modified Eagle's medium (DMEM) high glucose (Gibco Invitrogen, Basel, Switzerland, Cat. No. 41965), Heat Inactivated Fetal Bovine Serum, Qualified (HI FBS; Gibco Invitrogen, Basel, Switzerland, Lot. No. 16140), MEM non essential amino acids (NEAA; Gibco Invitrogen, Basel, Switzerland, Cat. No. 11140), HEPES (Gibco Invitrogen, Basel, Switzerland, Cat. No. 15630), Penicillin/Streptomycin (Pen/Strep, 100x; Gibco Invitrogen, Basel, Switzerland, Cat. No. 15140-122), L-Glutamine (Gibco Invitrogen, Basel, Switzerland, Cat. No. 25030), Puromycin (Sigma Aldrich, Buchs, Switzerland, Cat. No. P9620), DMSO (MERCK, Dietikon, Switzerland, Cat. No. 8.02912.2500), H2O, MilliQ-H2O unless otherwise stated (MILLIPORE QGARDOOR1, Millipore, Zug, Switzerland), Bovine serum albumine (BSA; Sigma Aldrich, Buchs, Switzerland Cat. No. A8412), SureFire p-Akt ½ (Ser473) Assay Kit (PerkinElmer, Schwerzenbach, Switzerland, Cat. No. TGRAS50K).The p-Akt(5473) SureFire assay measures the phosphorylation of endogenous cellular Akt ½ at Ser473 in cell lysates. Using Rat-1 cells stably expressing myr-HA-tagged versions of the human PI3Kdelta, PI3Kalpha, or PI3Kbeta p110 catalytic subunit isoforms, the assay was developed as a two-plate protocol in a 384-well format. For compound testing, the cells were seeded at a density of 4000 (Rat-1_PI3Kdelta), 7500 (Rat-1_PI3Kalpha).

Assay [2] in a line: as §1, with “No. 16140), MEM non essential amino acids (NEAA; Gibco Invitrogen, Basel, Switzerland, Cat. No. 11140), HEPES (Gibco Invitrogen, Basel, Switzerland, Cat. No. 15630), Penicillin/Streptomycin (Pen/Strep, 100x; Gibco Invitrogen, Basel, Switzerland, Cat. No. 15140-122), L-Glutamine (Gibco Invitrogen, Basel, Switzerland, Cat. No. 25030), Puromycin (Sigma Aldrich, Buchs, Switzerland, Cat. No. P9620), DMSO (MERCK, Dietikon, Switzerland, Cat. No. 8.02912.2500), H2O, MilliQ-H2O unless otherwise stated (MILLIPORE QGARDOOR1, Millipore, Zug, Switzerland), Bovine serum albumine (BSA; Sigma Aldrich, Buchs, Switzerland Cat. No. A8412), SureFire p-Akt ½ (Ser473) Assay Kit (PerkinElmer, Schwerzenbach, Switzerland, Cat. No. TGRAS50K).The p-Akt(5473) SureFire assay measures the phosphorylation of endogenous cellular Akt ½ at Ser473 in cell lysates. Using Rat-1 cells stably expressing myr-HA-tagged versions of the human PI3Kdelta, PI3Kalpha, or PI3Kbeta p110 catalytic subunit isoforms, the assay was developed as a two-plate protocol in a 384-well format. For compound testing, the cells were seeded at a density of 4000 (Rat-1_PI3Kdelta), 7500 (Rat-1_PI3Kalpha).” left out.

As for `Nc1ncc(-c2cc(N3CCN(c4ccccc4)C3=O)nc(N3CCOCC3)n2)c(C(F)(F)F)n1`, the half-maximal inhibitory concentration (IC50) in assay [1] was found to be 1580 nM; in assay [2], 1470 nM.
Turning to `Nc1ncc(-c2cc(N3CCOCC3)nc(N3CCOCC3)n2)c(C(F)(F)F)n1`, the concentration for half-maximal inhibition (IC50) turned out to be 156 nM in assay [1] and 139 nM in assay [2].
As for `Nc1ncc(-c2cc(N3CCCCC3=O)nc(N3CCOCC3)n2)c(C(F)(F)F)n1`, the IC50 stood at 1540 nM in assay [1] and 1040 nM in assay [2].
On to `Nc1ncc(-c2cc(N3CCC(=O)CC3)nc(N3CCOCC3)n2)c(C(F)(F)F)n1`, for which the figures for the half-maximal inhibitory concentration (IC50) in assay [1] and in assay [2] were 5310 nM and 6540 nM, respectively.
Take `Nc1ncc(-c2cc(N3C(=O)O[C@@H](c4ccc(OCCO)cc4)[C@@H]3CO)nc(N3CCOCC3)n2)c(C(F)(F)F)n1`: the IC50 in assay [1] and in assay [2] was below 3 nM throughout.
With `Nc1ncc(-c2cc(N3CCOC(c4ccccc4)C3)nc(N3CCOCC3)n2)c(C(F)(F)F)n1` (stereo unspecified), the IC50 in assay [1] was above 10000 nM.
